Experimental findings from patent US7556938B1, “Nucleic acids encoding potassium channel interactors” (Millennium Pharmaceuticals, Inc., priority 1998, dated 2009) are described below.

The structures appear in SMILES notation.

One assay addresses T1, Kv4.3/KChIP1 (Rattus norvegicus, UniProt Q62897).
T1 sequence (Q62897 1-655): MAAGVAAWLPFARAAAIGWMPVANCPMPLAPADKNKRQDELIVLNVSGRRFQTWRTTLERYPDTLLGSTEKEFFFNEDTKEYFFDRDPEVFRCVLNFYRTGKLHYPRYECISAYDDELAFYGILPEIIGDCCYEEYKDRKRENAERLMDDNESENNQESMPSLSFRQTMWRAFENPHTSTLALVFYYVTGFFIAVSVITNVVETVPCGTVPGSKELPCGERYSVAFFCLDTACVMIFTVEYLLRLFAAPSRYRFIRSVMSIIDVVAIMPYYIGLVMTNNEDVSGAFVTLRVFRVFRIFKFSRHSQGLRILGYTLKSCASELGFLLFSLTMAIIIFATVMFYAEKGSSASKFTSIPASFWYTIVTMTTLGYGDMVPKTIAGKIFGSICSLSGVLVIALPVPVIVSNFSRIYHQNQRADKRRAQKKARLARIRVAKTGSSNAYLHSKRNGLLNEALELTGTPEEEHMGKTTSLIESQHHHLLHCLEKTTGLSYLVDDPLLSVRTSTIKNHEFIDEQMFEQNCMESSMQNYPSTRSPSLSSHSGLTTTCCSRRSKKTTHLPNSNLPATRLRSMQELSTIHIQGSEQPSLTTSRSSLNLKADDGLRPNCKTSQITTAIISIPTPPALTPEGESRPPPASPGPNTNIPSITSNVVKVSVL
T1 sequence (Q8R426 1-216 isoform Q8R426-2 partner): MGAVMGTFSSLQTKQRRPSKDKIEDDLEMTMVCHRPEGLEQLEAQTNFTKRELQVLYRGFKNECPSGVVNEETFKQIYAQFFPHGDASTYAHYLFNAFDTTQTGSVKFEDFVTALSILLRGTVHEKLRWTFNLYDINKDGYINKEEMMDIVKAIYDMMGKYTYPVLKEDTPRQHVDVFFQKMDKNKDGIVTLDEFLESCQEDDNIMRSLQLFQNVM
As to the kind of experiment: Fatty acid modulation of Kv4.3/KChIP1 current in Xenopus oocytes. Format: cell-based. The note with it: for block of Kv4.3 peak amplitude: Kv4.3/KChIP1, 10 μM fatty acid, vs no-fatty acid control; for effect on Kv4.3 inactivation time constant: Kv4.3 co-expressed with KChIP1, 10 μM fatty acid. The method, then: (§1) Frogs underwent no more than two surgeries and surgeries were performed by well established techniques. Frogs were anesthetized with ice. Total cRNA (1-10 ng) was injected into stage IV Xenopus oocytes that were harvested the previous day. The Xenopus oocytes were incubated in ND96 containing (in mM) 96 NaCl, 2 KCl, 1.8 CaCl2, 1 MgCl2, 5 HEPES, pH 7.6, plus (Gentamycin 50 μg/ml) at 18° C. Xenopus oocytes were studied 3-7 days after injection. The two-electrode voltage-clamp recordings were performed in ND96 solution using a TURBO TEC 03 Clamp Amplifier (ALA Scientific Instruments, Westbury, N.Y.). Both electrodes were filled with 3 M KCl and had electrode resistances ranging from 0.2-1 MOhm. The current signals were filtered at 1000 Hz before transferred on a PC (Gateway, Calif.) using the PULSE software (HEKA, Germany). In this Example, the hypothesis that […] were the missing auxiliary subunits that accounted for the above kinetic discrepancy was investigated by expressing Kv4 alone or together with […] in both CHO cells and Xenopus oocytes, and measuring their inactivation time constants (using art known techniques as described in, for example, An et al. (2000) Nature 403:553-6; Keros, S. and […]. Neuroscience 17: 3476-87; and Villarroel, A. and […]. Neuroscience 16:2522-32). The effects of different concentrations of arachidonic acid on Kv4/KChIP current was studied in Xenopus oocytes. Because the physiological concentrations of arachidonic acid are often under 10 μM (Needleman, et al., 1986 Annu Rev Biochem 55:69-102; Anderson and Welsh, 1990, Proc Natl Acad Sci USA 87:7334-8; Meves, 1994, Prog Neurobiol 43:175-86), arachidonic acid was tested in the 1-10 μM range. […] Further, the slope of amplitude reduction as a function of increasing concentrations was very similar with or without the presence of […]. […] Villarroel and Schwarz, (1996) J.

For another assay, the system named is Kv4.3. As to the kind of experiment: Fatty acid modulation of Kv4.3 current (Kv4.3 alone) in Xenopus oocytes. Format: cell-based, rat. The note with it: Kv4.3 alone, 10 μM fatty acid, vs no-fatty acid control. As to the method:
as §1

As to `CCCCCC#CCC#CCC#CCC#CCCCC(=O)O` [ETYA, 5,8,11,14-eicosatetraynoic acid], on Kv4.3/KChIP1, the “block of Kv4.3 peak amplitude” value is reported as “inhibited significantly” and the “effect on Kv4.3 inactivation time constant” value (from here on “effect”) is reported as “reduced Kv4.3 inactivation time constant”. The “block of Kv4.3 peak amplitude” value in the assay on Kv4.3 is on record as “inhibited significantly”.

Consider `CCCCCCCCC#CCC#CCC#CCCCC(=O)O` [ETI, 5,8,11-eicosatriynoic acid], for which the “block of Kv4.3 peak amplitude” value at Kv4.3/KChIP1 and in the assay with Kv4.3 was “inhibited significantly” throughout. Also, the “effect” value at Kv4.3/KChIP1 is “reduced Kv4.3 inactivation time constant”.

As for `CCCCC/C=C/C/C=C/CCCCCCCC(=O)O` [linolelaidic acid], the “block of Kv4.3 peak amplitude” value at Kv4.3/KChIP1 is “small, statistically significant block”; in the assay with Kv4.3, “All values except that of linolelaidic acid/Kv4.3 alone were statistically significant”. Also, on Kv4.3/KChIP1, the “effect” value is recorded as “did not affect the Kv4.3 inactivation time constant”.

Take `CCCCC/C=C\C/C=C\C/C=C\CCCCC(=O)O` [γ-linolenic acid]: at Kv4.3/KChIP1, the “block of Kv4.3 peak amplitude” value is “inhibited significantly” and the “effect” value was “reduced Kv4.3 inactivation time constant”. Further, the “block of Kv4.3 peak amplitude” value in the assay on Kv4.3 is on record as “inhibited significantly”.
